One test addresses T1, AdipoR1 (Homo sapiens, UniProt Q96A54).
T1 construct: host or cells: human adipose tissue-derived stem cells (hASC); human primary retinal pigment epithelial (ABC) cells
T1 sequence (Q96A54 1-375): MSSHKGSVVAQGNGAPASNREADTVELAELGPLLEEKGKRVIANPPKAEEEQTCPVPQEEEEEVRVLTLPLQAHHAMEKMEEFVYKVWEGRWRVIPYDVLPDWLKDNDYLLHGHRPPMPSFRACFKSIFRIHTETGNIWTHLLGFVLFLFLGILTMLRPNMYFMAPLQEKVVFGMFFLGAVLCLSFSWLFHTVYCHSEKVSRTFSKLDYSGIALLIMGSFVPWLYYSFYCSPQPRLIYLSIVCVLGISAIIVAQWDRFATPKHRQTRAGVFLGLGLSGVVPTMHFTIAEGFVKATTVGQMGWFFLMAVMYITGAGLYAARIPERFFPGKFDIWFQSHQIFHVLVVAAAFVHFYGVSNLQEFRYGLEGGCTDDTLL
Nature of the test: DHA-d5 / AA-d8 uptake by hASCs overexpressing AdipoR1, LC-MS/MS, with adiporon (FIG. 11). In kind it is cell-based. On the procedure:
Stable clones of hASCs overexpressing AdipoR1 or mCherry following lentivirus transduction, were incubated overnight in the presence or not of DHA-d5 or AA-d8 (1 μM) and vehicle DMSO with various concentrations of AdipoR1 […] adiporon (1-50 μM). […] Compared to DHA-d5 uptake, levels of AA-d8 were extremely low under these conditions.

For test [1], the system named is human adipose tissue derived stem cells. Briefly: Chemical transdifferentiation of stem cells into neurons with DHA (FIG. 12). The class given is cell-based. To be noted: 24 hours, induction media containing DHA (504) vs induction medium alone. The procedure: Images were taken 24 hours following incubation in the presence of induction media containing or not containing DHA (504).

In the next test the test system is ischemic stroke. Briefly: DHA administered icv after ischemic stroke (FIG. 7). In kind it is in vivo, rats.
Test [2] has as its system SD male rats, 2 h of MCAo. Conditions: DHA systemically injected; reference 8; cited from earlier work.
In test [3] the test system is neurons and neural stem/progenitor cells. To be noted: cited from earlier work.
For test [4], the system named is SD male rats, 2 h of MCAo. Briefly: 2 h MCAo by intraluminal suture, DHA 5 mg/kg IV (FIG. 16-23). In kind it is in vivo. On the procedure:
(11-12 weeks old); Model: 2 h of MCAo by intraluminal suture; DHA (5 mg/kg) or Saline treatments (IV)—at 3 h from onset of MCAo; BrdU labeling at days 4, 5, 6; Immunohistochemistry on week 2

[5] abbreviates: DHA 5 mg/kg IV, immunohistochemistry on week 2.

Here are results for three compounds from patent US20210139846A1, “ENGINEERED CELLS, AND METHODS OF USING THE SAME” (Board of Supervisors of Louisiana State University and …, priority 2017, published 2021).

For the compound `CCCCC/C=C\C/C=C\C/C=C\C/C=C\CCCC(=O)O` [AA-d8], the “levels of AA-d8 compared to DHA-d5 uptake” value at AdipoR1 (1 μM AA-d8 overnight in hASCs) is listed as “extremely low”.

In the case of `CC/C=C\C/C=C\C/C=C\C/C=C\C/C=C\C/C=C\CCC(=O)O` [DHA, 4,7,10,13,16,19-docosahexanoic acid], in test [1], the “percentage of morphologically mature neurons” value is given as “strongly increased”. For the same compound, in the test with ischemic stroke (DHA at the site where GESC would be administered (icv), 7 days), the ischemic brain damage entry is recorded as “reduced”. Further, the behavioral functions entry with ischemic stroke (DHA icv, 7 days) was “improves”. Moreover, the “protection by DHA administered icv” value in the test on ischemic stroke (icv) is listed as “protective”. In addition, the “neuroprotection against ischemic stroke” value in test [2] is recorded as “neuroprotective”. For the same compound, in test [3] (Cao, D et al., 2009), the “neurite growth, synaptogenesis, synaptic protein expression and synaptic functions in hippocamal neuron” value was “promotes”. Besides, the neurite outgrowth entry in test [3] (DHA supplementation, L. Dagai et al., 2009) is “accelerated”. The “neuronal differentiation of neural stem cells” value in test [3] (M. Katakura et al., 2009) is “enhances”. In addition, the “number of neurons derived from neural stem/progenitor cells” value in test [3] (Nobuyuki Sakayoti et al., 2011) is reported as “increases”. Further, in test [4] (DHA 5 mg/kg IV at 3 h from onset of MCAo vs saline), the total neurologic deficits result is reported as “improved”. Further, in test [4] (DHA 5 mg/kg IV, histopathology), the cortical infarct volume entry is on record as “reduced” and the total infarct volume result is recorded as “reduced”. In test [4] (setting [5]), the “BrdU+/DCX+ cells in cortex, SVZ and DG” value is recorded as “increased”; the “BrdU+/NeuN+ cells in cortex, SVZ and DG” value is given as “increased”; the “BrdU+/ki-67+ cells in cortex, SVZ and DG” value is “increased”. Also, in test [4] (proliferation, differentiation and migration of neural stem cells), the “neurogenesis in the DG, SVZ and peri-infarct area” value is given as “increased”. In addition, in test [4] (rat, in vivo), the infarct volume result is given as “reduced” and the neurobehavioral recovery entry is given as “promoted”.

In the case of `O=C(COc1ccc(C(=O)c2ccccc2)cc1)NC1CCN(Cc2ccccc2)CC1` [adiporon], on AdipoR1 (adiporon 1-50 μM, 1 μM DHA-d5 overnight), the “effect on DHA-d5 uptake of AdipoR1 transduced cells” value is “further increased”.
